Measured values taken from US9771352B2, “Hydroxyalkyl-substituted phenyltriazole derivatives and uses thereof” (BAYER PHARMA AKTIENGESELLSCHAFT, priority 2014, dated 2017).

Legend:
human V1a receptor = biological target: T1, human V1a receptor (Homo sapiens, UniProt P37288); assay: Cellular in vitro assay for determining vasopressin receptor activity, V1a receptor cell line (photoprotein luminescence); format: cell-based; conditions: CHO cell line transfected with human V1a receptor; [Arg8]-vasopressin at EC50; compounds of the invention (Table 1A); read-out: IC50 hV1a
T1 construct: expressed in transfected cells; host or cells: CHO K1 (ATCC), also stably transfected with modified aequorin
T1 sequence (P37288 whole entry): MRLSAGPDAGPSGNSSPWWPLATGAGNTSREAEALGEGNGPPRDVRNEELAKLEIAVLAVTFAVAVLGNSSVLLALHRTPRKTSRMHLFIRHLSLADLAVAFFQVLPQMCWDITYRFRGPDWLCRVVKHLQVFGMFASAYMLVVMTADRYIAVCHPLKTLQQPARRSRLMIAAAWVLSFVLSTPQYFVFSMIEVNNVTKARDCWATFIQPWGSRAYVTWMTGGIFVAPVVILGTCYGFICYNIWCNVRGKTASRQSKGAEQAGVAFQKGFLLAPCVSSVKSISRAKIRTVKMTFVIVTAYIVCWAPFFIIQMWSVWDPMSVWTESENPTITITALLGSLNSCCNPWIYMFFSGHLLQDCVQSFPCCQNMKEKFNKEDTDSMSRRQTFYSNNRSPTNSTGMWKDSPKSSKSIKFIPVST

human V2 receptor = biological target: T2, human V2 receptor (Homo sapiens, UniProt P30518); assay: Cellular in vitro assay for determining vasopressin receptor activity, V2 receptor cell line (CRE-luciferase); format: cell-based; conditions: CHO cell line transfected with human V2 receptor; [Arg8]-vasopressin at EC50; compounds of the invention (Table 1A); read-out: IC50 hV2
T2 construct: expressed in transfected cells; host or cells: CHO K1 (ATCC) expressing firefly luciferase under a CRE-responsive promoter
T2 sequence (P30518 whole entry): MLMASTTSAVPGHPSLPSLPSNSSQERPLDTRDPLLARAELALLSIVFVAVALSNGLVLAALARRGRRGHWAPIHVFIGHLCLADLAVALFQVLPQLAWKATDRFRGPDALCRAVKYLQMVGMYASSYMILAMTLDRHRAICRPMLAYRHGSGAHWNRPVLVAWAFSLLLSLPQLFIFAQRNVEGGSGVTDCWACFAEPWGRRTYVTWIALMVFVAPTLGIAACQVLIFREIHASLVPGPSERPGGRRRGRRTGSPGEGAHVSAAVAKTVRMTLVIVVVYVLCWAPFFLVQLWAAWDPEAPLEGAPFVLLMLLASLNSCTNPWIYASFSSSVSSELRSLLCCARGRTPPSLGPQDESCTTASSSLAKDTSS
Procedure, shortened: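 CHO K1 cells stably expressing human V2 receptor with CRE-driven firefly luciferase, plated the day before in DMEM/F12 with 2% FCS at 37° C. Receptor activation raises cAMP and luciferase expression; after Triton lysis and luciferin addition, luminescence is read and IC50 values derived.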

conscious rats = assay: Diuresis investigations in conscious rats kept in metabolism cages; format: in vivo, Wistar rats; conditions: Rattus norvegicus, po, read-out: Urinary volume; for response vs control in vivo at 0.3 mg/kg: dosage p.o. 0.3 mg/kg (Table 2A); for response vs control in vivo at 1 mg/kg: dosage p.o. 1.0 mg/kg (Table 2A); for response vs control in vivo at 3 mg/kg: dosage p.o. 3.0 mg/kg (Table 2A)
Protocol: Wistar rats (220-450 g body weight) are kept with free access to feed (Altromin) and drinking water. During the experiment, the animals are kept with free access to drinking water for 4 to 8 or up to 24 hours individually in metabolism cages suitable for rats of this weight class (Tecniplast Deutschland GmbH, D-82383 HohenpeiBenberg). At the beginning of the experiment, the animals are administered the test substance in a volume of 1 to 3 ml/kg body weight of a suitable solvent by means of gavage into the stomach. Control animals only receive solvent. Controls and substance tests are carried out in parallel on the same day. Control groups and substance-dose groups each consist of 4 to 8 animals. During the experiment, the urine excreted by the animals is collected continuously in a receiver at the base of the cage. The volume of urine per time unit is determined separately for each animal, and the concentration of urinary electrolytes is measured by standard methods of flame photometry. Before the beginning of the experiment, the body weight of the individual animals is determined.

Row | SMILES | IC50 (human V1a receptor) [nM] | IC50 (human V2 receptor) [nM] | response vs control in vivo at 0.3 mg/kg (conscious rats) [%] | response vs control in vivo at 1 mg/kg (conscious rats) [%] | response vs control in vivo at 3 mg/kg (conscious rats) [%]
1 | C[C@H](O)c1nc(Cn2nc(-c3ccc(Cl)cc3)n(C[C@H](O)C(F)(F)F)c2=O)nn1-c1cccc(F)c1 [Example 76, 5-(4-Chlorophenyl)-2-({1-(3-fluorophenyl)-5-[(1S)-1-hydroxyethyl]-1H-1,2,4-triazol-3-yl}-methyl)-4-[(2S)-3,3,3-trifluoro-2-hydroxypropyl]-2,4-dihydro-3H-1,2,4-triazol-3-one] | 2.5 | 5.1 | 350 |  | 
2 | C[C@H](O)c1nc(Cn2nc(-c3ccc(Cl)cc3)n(C[C@H](O)C(F)(F)F)c2=O)nn1-c1cccc(Cl)c1 [Example 79, 5-(4-Chlorophenyl)-2-({1-(3-chlorophenyl)-5-[(1S)-1-hydroxyethyl]-1H-1,2,4-triazol-3-yl}-methyl)-4-[(2S)-3,3,3-trifluoro-2-hydroxypropyl]-2,4-dihydro-3H-1,2,4-triazol-3-one] | 3.6 | 1.7 | 612 |  | 
3 | Cc1ccccc1-n1nc(Cn2nc(-c3ccc(Cl)cc3)n(C[C@H](O)C(F)(F)F)c2=O)nc1CO [Example 5, 5-(4-Chlorophenyl)-2-{[5-(hydroxymethyl)-1-(2-methylphenyl)-1H-1,2,4-triazol-3-yl]methyl}-4-[(2S)-3,3,3-trifluoro-2-hydroxypropyl]-2,4-dihydro-3H-1,2,4-triazol-3-one] | 0.4 | 1.8 | 166 | 438 | 
4 | CC(O)c1nc(Cn2nc(-c3ccc(Cl)cc3)n(C[C@H](O)C(F)(F)F)c2=O)nn1-c1cc(F)cc(Cl)c1 (single isomer, unassigned) [Example 15] | 38.4 | 4.1 | 412 |  | 
5 | CC(O)c1nc(Cn2nc(-c3ccc(Cl)cc3)n(C[C@H](O)C(F)(F)F)c2=O)nn1-c1cc(F)cc(Cl)c1 (single isomer, unassigned) [Example 14] | 1.3 | 0.4 |  | 753 | 

Further compounds by falling IC50 (human V1a receptor), results first:

Row | IC50 (human V1a receptor) [nM] | IC50 (human V2 receptor) [nM] | SMILES | response vs control in vivo at 0.3 mg/kg (conscious rats) [%] | response vs control in vivo at 1 mg/kg (conscious rats) [%] | response vs control in vivo at 3 mg/kg (conscious rats) [%]
6 | 10.6 | 1.7 | O=c1n(Cc2nc(CO)n(-c3cc(F)cc(Cl)c3)n2)nc(-c2ccc(Cl)cc2)n1C[C@H](O)C(F)(F)F [Example 6, 2-{[1-(3-Chloro-5-fluorophenyl)-5-(hydroxymethyl)-1H-1,2,4-triazol-3-yl]methyl}-5-(4-chlorophenyl)-4-[(2S)-3,3,3-trifluoro-2-hydroxypropyl]-2,4-dihydro-3H-1,2,4-triazol-3-one] | 132 | 439 | 
7 | 6 | 2.5 | O=c1n(Cc2nc(CO)n(-c3cccc(Cl)c3)n2)nc(-c2ccc(Cl)cc2)n1C[C@H](O)C(F)(F)F [Example 1, 5-(4-Chlorophenyl)-2-{[1-(3-chlorophenyl)-5-(hydroxymethyl)-1H-1,2,4-triazol-3-yl]methyl}-4-[(2S)-3,3,3-trifluoro-2-hydroxypropyl]-2,4-dihydro-3H-1,2,4-triazol-3-one] | 194 |  | 588
8 | 5 | 8.7 | O=c1n(Cc2nc(CO)n(-c3cccc(F)c3)n2)nc(-c2ccc(Cl)cc2)n1C[C@H](O)C(F)(F)F [Example 2, 5-(4-Chlorophenyl)-2-{[1-(3-fluorophenyl)-5-(hydroxymethyl)-1H-1,2,4-triazol-3-yl]methyl}-4-[(2S)-3,3,3-trifluoro-2-hydroxypropyl]-2,4-dihydro-3H-1,2,4-triazol-3-one] | 194 |  | 588
9 | 2.9 | 0.2 | Cc1cccc(-n2nc(Cn3nc(-c4ccc(Cl)cc4)n(C[C@H](O)C(F)(F)F)c3=O)nc2C(C)O)c1 (single isomer, unassigned) [Example 29] | 404 | 983 | 
10 | 1 | 6.7 | C[C@@H](O)c1nc(Cn2nc(-c3ccc(Cl)cc3)n(C[C@H](O)C(F)(F)F)c2=O)nn1-c1ccccc1Cl [Example 83, 5-(4-Chlorophenyl)-2-({1-(2-chlorophenyl)-5-[(1R)-1-hydroxyethyl]-1H-1,2,4-triazol-3-yl}-methyl)-4-[(2S)-3,3,3-trifluoro-2-hydroxypropyl]-2,4-dihydro-3H-1,2,4-triazol-3-one] | 279 |  | 
11 | 0.7 | 2.3 | C[C@H](O)c1nc(Cn2nc(-c3ccc(Cl)cc3)n(C[C@H](O)C(F)(F)F)c2=O)nn1-c1ccccc1Cl [Example 82, 5-(4-Chlorophenyl)-2-({1-(2-chlorophenyl)-5-[(1S)-1-hydroxyethyl]-1H-1,2,4-triazol-3-yl}-methyl)-4-[(2S)-3,3,3-trifluoro-2-hydroxypropyl]-2,4-dihydro-3H-1,2,4-triazol-3-one] | 220 |  | 828
12 | 0.4 | 5.3 | O=c1n(Cc2nc(CO)n(-c3ccccc3Cl)n2)nc(-c2ccc(Cl)cc2)n1C[C@H](O)C(F)(F)F [Example 4, 5-(4-Chlorophenyl)-2-{[1-(2-chlorophenyl)-5-(hydroxymethyl)-1H-1,2,4-triazol-3-yl]methyl}-4-[(2S)-3,3,3-trifluoro-2-hydroxypropyl]-2,4-dihydro-3H-1,2,4-triazol-3-one] | 91 | 190 | 
